The values below are quoted from earlier work in patent publication US20090117079A1, “METHODS AND MATERIALS FOR TREATING OR PREVENTING DISEASES/DISORDERS MEDIATED BY ALCOHOL DEHYDROGENASE” (priority 2007, published 2009).

For the series, the system named is alcohol dehydrogenase (ADH I). As to conditions: competitive inhibition of ADH I in humans; affinity of ethanol relative to methanol.

In the case of `CCO` [ethanol], the ethanol/methanol affinity ratio was 10/1.
